We go through 1 compound from patent publication US11559512B2, “Composition for prevention, alleviation, and/or treatment of heat illness” (priority 2017, dated 2023).

Entries after “also recorded” stand apart in the source; their conditions may differ.

Data set [1] has as its system human vascular endothelial cells (HUVECs). The data set can be described thus: DiOC6 / PI staining and flow cytometry of HUVECs under heat stress load. The data set is classed as cell-based. To be noted: heat stress load 40° C. for 2 days, flow cytometry, vs DMSO. The protocol: Two days later, the culture solution of each well was removed with an aspirator. […] The supernatant was removed, and then, 5 mL of a culture medium at 37° C. was added to the cells and stirred. After the stirring, DiOC6 (final concentration: 80 nM) was added to each 15-mL tube and reacted at the same temperature as the culture temperature for 30 minutes.
The supernatant was removed, and then, 1 mL of a culture medium was added to the cells, and 2 μL of PI (Sigma-Aldrich Co. LLC) was added. The cells thus supplemented were transferred to a FACS tube and measured in a flow cytometer (BD).
In order to quantify the effects, the cytotoxicity suppressive effects of auraptene (component A) and tangeretin (component T) inhibiting the cell death caused by the load of heat stress were quantified using DiOC6 staining and flow cytometry as described above. The DiOC6 dye is a reagent for measuring mitochondrial activity and is a reagent that can perform measurement based on the attenuation of the amount of fluorescence by cytotoxicity (cell death, etc.).
For orientation: In flow cytometry, cells or beads pass a laser one at a time.

The test system of a further data set is PPARγ. As to the kind of experiment: PPARγ expression in HUVECs, antibody staining, confocal microscopy. The data set is classed as cell-based, human. The protocol:
(§1) Then, six 35-mm dishes were provided, and 2 mL/dish of the solution with the adjusted HUVEC density was inoculated. Auraptene (10 mM) and tangeretin (10 mM) were each added at 2 μL (final concentration: 10 μM)/dish to two dishes. Also, DMSO was added at 2 μL/dish to the remaining 2 dishes to prepare a control.
(§2) The supernatant of the HUVECs cultured in each 35-mm dish was removed, and 2 mL/dish of 4% paraformaldehyde in a phosphate buffer solution was added. The cells were left standing at room temperature for 1 hour.
(§3) The solution was removed, and then, the cells were rinsed twice. 2 mL/dish of 0.5% Triton-X00 (Wako Pure Chemical Industries, Ltd.) in PBS was added, and the cells were left standing at room temperature for 5 minutes. The solution was removed, and then, the cells were rinsed twice. 1 mL/dish of an anti-ABCD3 antibody, an anti-PPARα antibody or an anti-PPARγ antibody, each of which was diluted 150-fold with a FACS buffer, was added, and the cells were left standing at room temperature for 2 hours for reaction.
The solution was removed, and then, the cells were rinsed twice. 1 mL/dish of DyLight 649-labeled anti-Rabbit IgG antibody diluted 500-fold with a FACS buffer was added, and the cells were left standing at room temperature for 1 hour in the dark for reaction. The solution was removed, and then, the cells were rinsed twice. Two drops of Diamond Antifade Mountant with DAPI were added to the cells, and a round glass cover was put on the cells, followed by fluorescence photographing under a confocal laser scanning microscope.

Another data set deals with ABCD3. As to the kind of experiment: ABCD3 expression in HUVECs, antibody staining, confocal microscopy. The data set is classed as cell-based, human. The note with it: usual culture and heat stress load (40° C. for 3 days), vs DMSO. The protocol: as §1, §2, §3
The solution was removed, and then, the cells were rinsed twice. […] Two drops of Diamond Antifade Mountant with DAPI were added to the cells, and a round glass cover was put on the cells, followed by fluorescence photographing under a confocal laser scanning microscope.

In another data set the test system is IL-6. The data set can be described thus: IL-6 concentration in supernatant of lymphocytes under heat stress load (ELISA). The data set is classed as cell-based, human. As for the experimental part:
10 mL of human peripheral blood was collected and anti-coagulated with heparin, and 10 mL of PBS(−) was added thereto and stirred. 15 mL of Lymphocyte Separation Medium 1077 (PromoCell GmbH) was layered thereon so as not to mix blood thereinto, followed by blood separation at 1600 rpm for 30 minutes in a centrifuge. The mononuclear cell layer thus separated was collected into a dropper, added to 20 mL of a culture medium, and centrifuged at 1500 rpm for 5 minutes in a centrifuge. The supernatant was removed, and then, 20 mL of a culture medium was added to the cells and stirred. The cells were centrifuged again at 1500 rpm for 5 minutes in a centrifuge. The supernatant was removed, and then, 10 mL of a culture medium was added to the cells and stirred. The whole amount was added to a 10-cm dish and incubated at 37° C. for 1 hour in a 5% CO2 environment. […] The solution with the adjusted lymphocyte density was inoculated at 4 mL/well to 2 wells of each 6-well plate. […] Then, the supernatant was recovered into a 1.5 mL Eppendorf tube and centrifuged at 8000 rpm for 5 minutes in a centrifuge. The supernatant was recovered into a fresh 1.5-mL Eppendorf tube and preserved at −20° C.
Human IL-6 of an ELISA kit was used in IL-6 measurement. 5× Coating Buffer A included in the assay kit was diluted 5-fold with distilled water. Capture Antibody diluted 200-fold with the Coating Buffer was added at 100 μL/well to a 96-well plate, and the plate was left standing overnight at 4° C.
The antibody solution was removed, and each well was washed four times. A very small amount of the reaction solution remaining in the plate was completely removed with Kim Towel. Then, ELISA Assay Diluent (BioLegend, Inc.) diluted 5-fold with distilled water was added at 200 μL/well, and the plate was left standing overnight at 4° C.
The solution was removed, and each well was washed four times. A very small amount of the reaction solution remaining in the plate was completely removed with Kim Towel. IL-6 standard protein was diluted with Assay Diluent to prepare dilution series of the IL-6 standard protein. The dilution series of the IL-6 standard protein and the 40° C. culture supernatant of the lymphocytes were added at 100 μL/well, and the plate was left standing at room temperature for 2 hours. The solution was removed, and each well was washed four times. A very small amount of the reaction solution remaining in the plate was completely removed with Kim Towel. Detection Antibody diluted 200-fold with Assay Diluent was added at 100 μL/well, and the plate was left standing at room temperature for 1 hour. […] The reaction was terminated by the addition of 2 N H2SO4 at 100 μL/well, followed by the absorbance measurement of the reaction solution in a plate reader at 450 nm.

As to `CC(C)=CCC/C(C)=C/COc1ccc2ccc(=O)oc2c1` [auraptene, 7-geranyloxycoumarin], the “number of DiOC6 staining-positive cells (suppression of cytotoxicity, cell death)” value in data set [1] was “increased the number of DiOC6 staining-positive cells”. Moreover, the “expression of PPARγ” value in the data set with PPARγ (HUVECs, 40° C. and 1 day, 10 μM, vs DMSO) is reported as “increase in the expression of PPARγ”. In addition, the PPARγ result with PPARγ (Table 2 summary, HUVECs 40° C., 37° C. as comparative control) was “Unchanged”. Moreover, the “change in the expression of ABCD3” value in the data set on ABCD3 was “change in the expression of ABCD3 was not observed; also recorded: not found”. Moreover, in the data set on IL-6 (Table 2 summary, 40° C., inflammatory cytokines, e.g. IL-6 and CCL-2), the Pyrogenic factor result is reported as “Decreased”. The “IL-6 sample A” value in the data set with IL-6 (peripheral blood lymphocytes sample A, 40° C., auraptene 10 μM, non-addition 10 ± 1.1) was 5 ± 0.3 pg/mL. Further, in the data set on IL-6 (peripheral blood lymphocytes sample B, 40° C., auraptene 10 μM, non-addition 18 ± 0.8), the “IL-6 sample B” value amounted to 10 ± 0.1 pg/mL. In addition, in the data set with IL-6 (peripheral blood lymphocytes under heat stress load, vs DMSO, p<0.05), the “production of IL-6” value was “significantly suppressed”.
